Data as given in US11531207B2, “Devices, apparatus and method for providing photostimulation and imaging of structures” (The Trustees of Columbia University in the City of New York, priority 2008, dated 2022).

Tested on: glia
Experiment: dual labeling of cortical slices with mag-Indo-1AM and sulforhodamine (neurons vs glia)
Format: cell-based, mice
Conditions: 145/2555; n=4 slices; neocortical slices
Method: FIGS. 9(a)-9(d) are exemplary images mag-Indo-1-AM loads mostly neurons in which slices are simultaneously loaded with mag-Indo1-AM and Sulforhodamine 101 (e.g., SR101, 20 μM) and imaged at their respective exemplary wavelengths;
(See A. Nimmerjahn, F. Kirchhoff, J. N. Kerr et al., Nat Methods 1 (1), 31 (2004)). For example, 5.7±1.56% (145/2555; n=4 slices) of mag-Indo-1AM loaded cells can also be loaded with sulforhodamine, and only 8.1 t 2.59% (145/1786, n=4 slices) of sulforhodamine-loaded cells can also be loaded with mag-Indo-1AM.
Coronal neocortical slices can be prepared from, e.g., P12-15 C57/BL6 mice or somatostatin-GFP mice (see A. A. Oliva, Jr., M. Jiang, T. Lam et al., J Neurosci 20 (9), 3354 (2000)) (e.g., Jackson Laboratory, Bar Harbor, Me.) with a vibratome (e.g., VT1000S; Leica, Nussloch, Germany). 300 μm thick slices can be cut in ice-cold oxygenated modified ACSF that can include 1 mM CaCl2 and 3 mM MgSO4, in which NaCl can be replaced by an equimolar concentration of sucrose (in mM): 27 NaHCO3, 1.5 NaH2PO4, 222 Sucrose, 2.6 KCl. Slices can then be placed in oxygenated standard ACSF at 37° C. for 30 min. For AM-loading, slices can be deposited onto the bottom of a small Petri dish (35×10 mm) filled with 2 ml of ACSF, ventilated with 95% O2/5% CO2 and placed in a slide warmer at 37° C. (Fisher Scientific, Waltham Mass.). […]

## mag-Indo-1AM
  mag-Indo-1AM loaded cells also loaded with sulforhodamine: 5.7±1.56%
